# Measured values taken from US6169084A, “2-methyl-thieno-benzodiazepine formulation” (Eli Lilly and Company, priority 1998, dated 2001).
# How the values were obtained:
# [1] = dogs, male vs female; cited from earlier work
# [2] = Discoloration of olanzapine in contact with excipients; assay type: physicochemical; conditions: contacted with certain excipients including powder blends; exacerbated by ambient air, elevated temperatures, moist environments
smiles,measurement,setting,value
"Cc1cc2c(s1)Nc1ccccc1N=C2N1CCN(C)CC1 [olanzapine, 2-methyl-4-(4-methyl-1-piperazinyl)-10H-thieno[2,3-b][1,5]benzodiazepine]",difference in the pharmacokinetic of olanzapine between the sexes,[1],no difference
same,discoloration (stability),[2],undergoes undesirable discoloration
